# Source: article PMC2831033, “Characterization of a molecular switch system that regulates gene expression in mammalian cells through a small molecule” (2010)
# Legend:
# [1] = target: T1, retinoid X receptor wild type (RXRwt) (Homo sapiens, UniProt P19793); experiment: luciferase reporter (CRBPII response element) activation in transfected HEK293T cells; format: cell-based
# T1 construct: gene RXRA; full length RXRwt
# [2] = target: T2, RXR variant Q275C;I310M;F313I (QCIMFI) (Homo sapiens, UniProt P19793, Q275C/I310M/F313I); experiment: luciferase reporter activation in transfected HEK293T cells; format: cell-based
# T2 construct: gene RXRA; RXR variant LBD with RXR DBD (QCIMFI)
# T2 sequence (P19793 1-462 Q275C/I310M/F313I): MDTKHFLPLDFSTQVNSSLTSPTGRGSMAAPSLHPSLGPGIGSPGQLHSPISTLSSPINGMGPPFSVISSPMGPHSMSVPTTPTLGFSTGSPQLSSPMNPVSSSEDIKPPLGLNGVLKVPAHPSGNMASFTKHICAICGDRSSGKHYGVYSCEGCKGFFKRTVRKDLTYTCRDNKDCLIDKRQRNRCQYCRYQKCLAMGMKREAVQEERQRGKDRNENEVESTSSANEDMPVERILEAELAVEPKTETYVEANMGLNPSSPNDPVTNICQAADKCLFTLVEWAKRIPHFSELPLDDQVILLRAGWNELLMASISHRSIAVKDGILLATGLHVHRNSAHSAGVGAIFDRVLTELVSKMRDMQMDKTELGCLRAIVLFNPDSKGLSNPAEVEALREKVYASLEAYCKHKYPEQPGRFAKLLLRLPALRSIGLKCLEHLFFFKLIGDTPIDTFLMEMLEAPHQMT
# T1 sequence (P19793 whole entry): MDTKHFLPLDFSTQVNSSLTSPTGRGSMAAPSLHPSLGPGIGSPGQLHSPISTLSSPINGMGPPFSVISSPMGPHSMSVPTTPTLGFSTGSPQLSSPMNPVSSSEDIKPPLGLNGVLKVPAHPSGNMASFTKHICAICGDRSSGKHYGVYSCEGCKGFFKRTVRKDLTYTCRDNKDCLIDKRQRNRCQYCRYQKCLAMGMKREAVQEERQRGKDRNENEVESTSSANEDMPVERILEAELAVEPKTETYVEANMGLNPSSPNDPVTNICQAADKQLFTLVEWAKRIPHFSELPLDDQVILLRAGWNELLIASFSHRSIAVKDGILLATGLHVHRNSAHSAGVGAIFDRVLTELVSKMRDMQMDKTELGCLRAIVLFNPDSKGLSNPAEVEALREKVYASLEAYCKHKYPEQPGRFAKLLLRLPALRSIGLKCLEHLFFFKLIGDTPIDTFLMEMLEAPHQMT
substance,measurement,setting,value
LG335,EC50,[1],338 nM
same,EC50,[2],38 nM
